Broadly, the EC50 is the midpoint of the concentration-response curve.

Each structure is given as a SMILES string. Entries after “also recorded” stand apart in the source; their conditions may differ.

In the first assay the test system is human peripheral blood mononuclear cells. In words: cytokine/chemokine induction in human PBMCs (multiplexed bead array immunoassays). It counts as cell-based. To be noted: 41-analyte multiplexed assay, human PBMCs, FIG. 9.
Experimental: Immunoassays for Cytokines:
Fresh human peripheral blood mononuclear cells (hPBMC) were isolated from human blood obtained by venipuncture with informed consent and as per institutional guidelines on Ficoll-Hypaque gradients. Aliquots of PBMCs (10^5 cells in 100 μL/well) were stimulated for 12 h with graded concentrations of test compounds. Supernatants were isolated by centrifugation, and were assayed in triplicates using analyte-specific multiplexed cytokine/chemokine bead array assays. PBMC supernatants were also analyzed for 41 chemokines and cytokines (EGF, Eotaxin, FGF-2, Fit-3 ligand, Fractalkine, G-CSF, GM-CSF, GRO, IFN-α2, IFN-γ, IL-10, IL-12 (p40), IL-12 (p70), IL-13, IL-15, IL-17, IL-1ra, IL-1α, IL-1β, IL-2, IL-3, IL-4, IL-5, IL-6, IL-7, IL-8, IL-9, IP-10, MCP-1, MCP-3, MDC (CCL22), MIP-1α, MIP-1β, PDGF-AA, PDGF-AB/BB, RANTES, TGFα, TNF-α, TNF-β, VEGF, sCD40L) using a magnetic bead-based multiplexed assay kit (Milliplex MAP Human Cytokine/Chemokine kit). Data were acquired and processed on a MAGPIX instrument (EMD Millipore, Billerica, Mass.) with an intra-assay coefficients of variation ranging from 4-8% for the 41 analytes.
As for `CCCCc1nc2c(N)nc3ccccc3c2n1Cc1ccccc1` [1-benzyl-2-butyl-1H-imidazo[4,5-c]quinolin-4-amine], the “induction of G-CSF, GRO, MIP-1α and MIP-1β” value is “did not”.

Staying with this assay, now noted: human PBMCs as well as whole human blood, FIGS. 3A-3T.
For `CCCCCc1cc2ccccc2nc1N` [Compound 14b, 3-Pentylquinolin-2-amine], the cytokine/chemokine induction profile result is “induction of a specific set of chemokines and proinflammatory cytokines, including interleukins 12 and 18”.

The next assay concerns human TLR2, TLR3, TLR4, TLR5, TLR7, TLR9, TLR10, Nod1 and Nod2. In words: counter-screens in reporter cell lines specific for other human TLRs and Nod1/2. It counts as cell-based.
Settings: not given
(In general: A counterscreen serves to expose hits that act by an unwanted route or on another target.)
Regarding `CCCCOc1cc2ccccc2nc1N` [Compound 6, 3-(Butyloxy)quinolin-2-amine], the “activity in counter-screens / specificity for human TLR8” value is “specific for human TLR8”.
As to `CCCCSc1cc2ccccc2nc1N` [Compound 12, 3-(Butylthio)quinolin-2-amine], the “activity in counter-screens / specificity for human TLR8” value is listed as “specific for human TLR8”.
Consider `CCCCNc1cc2ccccc2nc1N` [Compound 9, N^3-Butylquinoline-2,3-diamine], for which the “activity in counter-screens / specificity for human TLR8” value was “specific for human TLR8”.

The target of the next assay is T1, human TLR8 (Homo sapiens, UniProt Q9NR97).
T1 construct: HEK293 cells stably co-transfected with the appropriate hTLR, MD2, and secreted alkaline phosphatase (sAP); expressed in transfected cells; host or cells: HEK293 (HEK-Blue™)
T1 sequence (Q9NR97 27-1041): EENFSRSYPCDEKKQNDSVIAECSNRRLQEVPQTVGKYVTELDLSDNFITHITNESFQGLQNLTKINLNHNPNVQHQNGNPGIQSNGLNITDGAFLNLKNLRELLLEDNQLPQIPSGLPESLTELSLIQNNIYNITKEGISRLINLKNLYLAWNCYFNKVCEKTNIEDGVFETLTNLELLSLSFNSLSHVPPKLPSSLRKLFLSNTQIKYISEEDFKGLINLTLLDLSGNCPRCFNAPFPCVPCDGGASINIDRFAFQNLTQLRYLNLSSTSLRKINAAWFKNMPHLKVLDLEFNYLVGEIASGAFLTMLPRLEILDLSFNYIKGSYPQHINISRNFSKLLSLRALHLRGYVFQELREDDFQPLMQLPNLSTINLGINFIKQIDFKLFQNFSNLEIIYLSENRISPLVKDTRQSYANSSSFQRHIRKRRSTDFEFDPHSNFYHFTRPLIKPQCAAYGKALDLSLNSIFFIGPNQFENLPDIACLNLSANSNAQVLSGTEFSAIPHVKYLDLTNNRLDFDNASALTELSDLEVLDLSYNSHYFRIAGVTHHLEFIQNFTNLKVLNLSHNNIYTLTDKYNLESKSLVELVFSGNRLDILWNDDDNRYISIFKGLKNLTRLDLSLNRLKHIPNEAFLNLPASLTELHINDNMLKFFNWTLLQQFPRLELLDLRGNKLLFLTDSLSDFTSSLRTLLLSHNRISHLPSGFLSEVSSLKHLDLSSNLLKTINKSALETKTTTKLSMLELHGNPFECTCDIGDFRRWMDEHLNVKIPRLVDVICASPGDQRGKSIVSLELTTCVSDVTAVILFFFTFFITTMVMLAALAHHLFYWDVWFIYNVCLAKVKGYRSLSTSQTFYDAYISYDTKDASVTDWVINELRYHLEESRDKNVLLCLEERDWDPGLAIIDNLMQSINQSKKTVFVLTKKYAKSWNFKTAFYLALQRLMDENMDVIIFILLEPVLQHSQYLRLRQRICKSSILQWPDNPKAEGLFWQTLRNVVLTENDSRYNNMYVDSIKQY
In words: human TLR8-specific HEK-Blue reporter gene assay (NF-κB induction). It counts as cell-based. The conditions noted are these: TLR8 primary screen. (A reporter such as luciferase makes a cellular process visible.)
Text: (§1) Human TLR2/-3/-4/-5/-7/-8/-9 Reporter Gene Assays (NF-κB Induction):
(§2) The induction of NF-κB was quantified using human TLR2/-3/-4/-5/-7/-8/-9-specific HEK-Blue™ reporter gene assays as previously described. HEK293 cells stably co-transfected with the appropriate hTLR, MD2, and secreted alkaline phosphatase (sAP), were maintained in HEK-Blue™ Selection medium containing zeocin and normocin. Stable expression of secreted alkaline phosphatase (sAP) under control of NF-κB/AP-1 promoters is inducible by appropriate TLR agonists, and extracellular sAP in the supernatant is proportional to NF-κB induction.
For the compound `Nc1nc2ccccc2c2cc(CCCO)oc12` [Compound A8r, 3-(4-aminofuro[2,3-c]quinolin-2-yl)propan-1-ol], the “TLR8 agonistic activity” value was “do not display TLR8 agonism”.
As for `CCCCCc1cc2c(o1)c(N)nc1ccccc12` [Compound A8e, 2-pentylfuro[2,3-c]quinolin-4-amine], the “TLR8 agonistic activity” value is recorded as “lower agonistic potencies”.
Regarding `CCCc1cc2c(o1)c(N)nc1ccccc12` [Compound A8c, 2-propylfuro[2,3-c]quinolin-4-amine], the “TLR8 agonistic activity” value was “lower agonistic potencies”.
For the compound `CC(O)Cc1cc2c(o1)c(N)nc1ccccc12` (stereo not drawn) [Compound A8v, 1-(4-aminofuro[2,3-c]quinolin-2-yl)propan-2-ol], the “TLR8 agonistic activity” value is given as “do not display TLR8 agonism”.
For the compound `CCCCCCc1cc2c(o1)c(N)nc1ccccc12` [Compound A8f, 2-hexylfuro[2,3-c]quinolin-4-amine], the “TLR8 agonistic activity” value is on record as “lower agonistic potencies”.
As for `CC(C)CC(O)c1cc2c(o1)c(N)nc1ccccc12` (stereo not drawn) [Compound A8u, 1-(4-aminofuro[2,3-c]quinolin-2-yl)-3-methylbutan-1-ol], the “TLR8 agonistic activity” value is on record as “do not display TLR8 agonism”.
Same read-out and setting: in the case of `Nc1nc2ccccc2c2cc(Cc3ccccc3)oc12` [Compound A8o, 2-benzylfuro[2,3-c]quinolin-4-amine] it was “inactive”.
Take `CCCCc1cc2c(nc(N)c3ccccc32)o1` [Compound A18, 2-butylfuro[2,3-c]isoquinolin-5-amine]: the “TLR8 agonistic activity” value was “inactive”.
Turning to `Nc1nc2ccccc2c2cc(-c3ccccc3)oc12` [Compound A8n, 2-phenylfuro[2,3-c]quinolin-4-amine], the “TLR8 agonistic activity” value was “inactive”.
For the compound `Cc1cc2c(o1)c(N)nc1ccccc12` [Compound A8b, 2-methylfuro[2,3-c]quinolin-4-amine], the “TLR8 agonistic activity” value is given as “lower agonistic potencies”.
Same read-out and setting: the result for `Nc1nc2ccccc2c2ccoc12` [Compound A8a, furo[2,3-c]quinolin-4-amine] reads “inactive”; that for `CCCc1cc2ccnc(N)c2o1` [Compound A28a, 2-propylfuro[2,3-c]pyridin-7-amine], “retained TLR8-selective agonistic activities; also recorded: feeble activity”; that for `CCCCc1cc2ccnc(N)c2o1` [Compound A28b, 2-butylfuro[2,3-c]pyridin-7-amine], “retained TLR8-selective agonistic activities; also recorded: feeble activity”.

Staying with this assay, now noted: cell-based TLR8-specific NF-κB transactivation assay; read-out: TLR8 agonistic potency EC50.
Regarding `CCCc1cc2ccnc(N)c2o1` [Compound A28a, 2-propylfuro[2,3-c]pyridin-7-amine], the EC50 was 24.4 µM.
On the same count and under the same terms, in the case of `CCCCc1cc2ccnc(N)c2o1` [Compound A28b, 2-butylfuro[2,3-c]pyridin-7-amine] it was 46.2 µM.

Staying with this assay, now noted: human TLR8-specific reporter gene assays, Table 1.
For `CCCCCc1cc(N)nc2ccccc12` [Compound 27b, 4-Pentylquinolin-2-amine], the “Agonistic Activity EC50 (μM) TLR8” value is listed as “Inactive”.
Regarding `CCCCc1cc(N)nc2ccccc12` [Compound 27a, 4-Butylquinolin-2-amine], the “Agonistic Activity EC50 (μM) TLR8” value is “Inactive”.
The same measure, in the same setting: the result for `CCCCCc1c(N)nc2ccccc2c1C` [Compound 21a, 4-Methyl-3-pentylquinolin-2-amine] reads “Inactive^a”.
In the case of `CCCCCc1c(N)nc2ccccc2c1CCC(C)C` [Compound 21c, 4-Isopentyl-3-pentylquinolin-2-amine], the “Agonistic Activity EC50 (μM) TLR8” value is “Inactive”.
As to `CCCCOc1cc(N)nc2ccccc12` [Compound 24a, 4-(Butyloxy)quinolin-2-amine], the “Agonistic Activity EC50 (μM) TLR8” value is given as “Inactive”.
For `CCCCCCc1cc2ccccc2nc1N` [Compound 14c, 3-Hexylquinolin-2-amine], the “Agonistic Activity EC50 (μM) TLR8” value was “Inactive”.
As to `CCCCCc1c(N)nc2ccccc2c1CC` [Compound 21b, 4-Ethyl-3-pentylquinolin-2-amine], the “Agonistic Activity EC50 (μM) TLR8” value is “Inactive”.
For the compound `CCCCCOc1cc(N)nc2ccccc12` [Compound 24b, 4-(Pentyloxy)quinolin-2-amine], the “Agonistic Activity EC50 (μM) TLR8” value was “Inactive”.

The assay is the same for the next values; noted with them: human TLR8-specific reporter gene assays, Table 1; read-out: Agonistic Activity EC50 (μM) TLR8.
In the case of `CCCCOc1cc2ccccc2nc1N` [Compound 6, 3-(Butyloxy)quinolin-2-amine], the EC50 was 2.18 µM.
In the case of `CC(C)CCOc1cc2ccccc2nc1N` [Compound 6h, 3-(Isopentyloxy)quinolin-2-amine], the half-maximal effective concentration (EC50) worked out at 50 µM.
On to `CCCC#Cc1cc2ccccc2nc1N` [Compound 14f, 3-(Pent-1-yn-1-yl)quinolin-2-amine], for which the half-maximal effective concentration (EC50) is 13 µM.
Regarding `CCCCCOc1cc2ccccc2nc1N` [Compound 6d, 3-(Pentyloxy)quinolin-2-amine], the EC50 was 7 µM.
Same read-out and setting: the result for `CCCCNc1cc2ccccc2nc1N` [Compound 9, N^3-Butylquinoline-2,3-diamine] reads 4.28 µM; that for `CCC/C=C/c1cc2ccccc2nc1N` [Compound 14d, (E)-3-(Pent-1-en-1-yl)quinolin-2-amine], 2.67 µM.
Consider `CCCCCCOc1cc2ccccc2nc1N` [Compound 6e, 3-(Hexyloxy)quinolin-2-amine], for which the concentration for a half-maximal effect (EC50) was determined as 50 µM.
Regarding `CC(C)COc1cc2ccccc2nc1N` [Compound 6g, 3-(Isobutyloxy)quinolin-2-amine], the EC50 turned out to be 50 µM.

The next assay deals with human TLR2/3/4/5/7/8/9 and NOD1/2. In words: primary screens: panel of reporter gene assays for TLR and NOD modulatory activities. To be noted: human TLR2/3/4/5/7/8/9 and NOD1/2 reporter gene assays.
Text: as §1, §2
Take `NCc1cc2c(o1)c(N)nc1ccccc12` [Compound A8x, 2-(aminomethyl)furo[2,3-c]quinolin-4-amine]: the “activity in primary screens (reporter gene panel)” value (“activity in primary screens” below) was “none of these compounds were active in any primary screens”.
Consider `CCOCCc1cc2c(o1)c(N)nc1ccccc12` [Compound A8w, 2-(2-ethoxyethyl)furo[2,3-c]quinolin-4-amine], for which the “activity in primary screens” value is reported as “none of these compounds were active in any primary screens”.
As to `NCCc1cc2c(o1)c(N)nc1ccccc12` [Compound A8y, 2-(2-aminoethyl)furo[2,3-c]quinolin-4-amine], the “activity in primary screens” value is “none of these compounds were active in any primary screens”.

These data come from patent US10654807B2, “Toll-like receptor 8 agonists” (The University Of Kansas, priority 2013, dated 2020).
